Laboratory results from patent publication US8530235B2, “Medium that supports culture of an oocyte and modulation of granulosa cell apoptosis” (Adelaide Research & Innovation Pty Ltd., priority 2005, dated 2013).

B1: BMP-7: Recombinant human BMP-7 obtained from R&D systems (protein, UniProt P18075 293-431, looked up)
Bone morphogenetic protein 7: STGSKQRSQNRSKTPKNQEALRMANVAENSSSDQRQACKKHELYVSFRDLGWQDWIIAPEGYAAYYCEGECAFPLNSYMNATNHAIVQTLVHFINPETVPKPCCAPTQLNAISVLYFDDSSNVILKKYRNMVVRACGCH

Key:
[1] = system: cumulus expansion of oocytectomised (OOX) complexes; assay: FSH-induced cumulus expansion score of OOX complexes; assay type: cell-based, mice; conditions: OOX complexes
Experimental: Members of the TGF-β superfamily are prime candidates for the mouse cumulus expansion-enabling factor (CEEF). This study was conducted to examine TGF-β superfamily processes regulating cumulus expansion. COCs were collected from eGG-primed mice and the oocyte microsurgically removed to generate oocytectomised (OOX) complexes. […] The type-I receptors for GDF9 and […] are ALK5 and ALK4, respectively. We tested the ability of an ALK4/5/7 kinase inhibitor to neutralize cumulus expansion.

[2] = system: granulosa cell; assay: GDF-9 and oocyte-induced granulosa cell DNA synthesis (Example 21); assay type: cell-based
From the text: FIGS. 14A and 14B show the effect of an AlK4/5/7 inhibitor on either GDF-9, TGF-β1, or oocyte induced DNA synthesis (Panel A), and the effect of various concentrations of the inhibitor on GDF-9 and oocyte induced DNA synthesis (Panel B).

[3] = system: Smad2/3; assay: CAGA-luciferase activity, activation of Smad2/3 (Example 21); assay type: cell-based
From the text: FIGS. 15A and 15B show the effect of various concentrations of the AlK4/5/7 inhibitor on TGF-β1 stimulated CAGA luciferase activity.

[4] = system: Smad 3-responsive CAGA-luciferase reporter; assay: Smad 3-responsive CAGA-luciferase reporter in mural granulosa cells from large antral follicles; assay type: cell-based, marmoset monkey, Callithrix jacchus; conditions: 48 h; 0.5 ng/ml TGFβ1, 88-265 ng/ml GDF9, 50 ng/ml BMP7 or 60 mouse oocytes
Experimental: (§1) FIGS. 18A and 18B show the activation of the TGF-β signalling pathway by GDF9 and oocytes. MGC from large follicles were transiently transfected with either a Smad 3-responsive CAGA-luciferase reporter construct (A) or a Smad 1-responsive BRE-luciferase reporter construct (B). Cells were subsequently left untreated, treated with 0.5 ng/ml TGFβ1, 88-265 ng/ml GDF9, 50 ng/ml BMP7 or co-cultured with 60 mouse oocytes. Cells were cultured for 48 h after which time luciferase activity was measured from cell extracts. Bars represent means+/− SEM from 3 replicate experiments expressed as a fold change relative to control.
(§2) Luciferase reporter constructs responsive to specific phosphorylated Smads were used to detect the activation of mural GC Smad proteins by recombinant GDF9 Mural GCs were collected and processed as described above, except cells were given a final wash in DMEM(MP Biomedicals, Seven Hills, Australia)+2% FCS (Trace Biosciences, Castle Hill, Australia). Following the final wash, cells were transferred to individual wells of a 96-well plate (Falcon) and cultured at 1.6×10^5 cells/ml. After 4 hours of culture, cells were transiently transfected with 50 ng of luciferase reporter construct DNA using Fugene 6 (Roche Diagnostics, Castle Hill, Australia). 18 hours after transfection, medium was aspirated from cells and replaced with DMEM supplemented with 0.1% FCS. Various ligands were added to cells at this point (see below) and the culture period extended for a further 48 hours. Experiments were terminated by removing media from wells and freezing plates at −20° C. […]
(§3) Seven adult female marmosets were primed with […] for 6 days, whole ovaries were removed on day 7, follicles manually excised, and GC were then collected from 3 size classes: periantral (PA; 0.42-0.66 mm), small antral (SA; 0.66-1.5 mm) and large antral (LA; >1.5 mm). […] In order to determine the effects of GDF9 on marmoset GC proliferation, we employed a GC bioassay whereby after 24 h ^3H-thymidine incorporation is assessed as an indicator of DNA synthesis and cellular proliferation. […]

[5] = system: Smad 1-responsive BRE-luciferase reporter; assay: Smad 1-responsive BRE-luciferase reporter in mural granulosa cells from large antral follicles; assay type: cell-based, marmoset monkey, Callithrix jacchus; conditions: 48 h; 0.5 ng/ml TGFβ1, 88-265 ng/ml GDF9, 50 ng/ml BMP7 or 60 mouse oocytes
Experimental: as §1, §2, §3

[6] = system: cumulus cells; assay: Cumulus cell apoptosis in oocytectomized complexes (OOX) and COC, TUNEL with confocal microscopy; assay type: cell-based, Bovine; conditions: OOX treated with 100 ng/ml BMP-7 and/or 10% BMP-15
Experimental: Bovine ovaries were collected from local abattoir and transported to the laboratory in warm saline (30-35° C.). Cumulus-oocyte complexes (COC) were aspirated from antral follicles (2- to 8-mm diameter) using an 18-gauge needle and a 10-ml syringe containing ˜2 ml aspiration media (Hepes-buffered Tissue Cultured Medium-199: TCM-199, ICN Biochemicals, Irvine, Calif., USA) supplemented with 50 μg/ml kanamycin (Sigma-Aldrish, St. louis, Mo.), 4 mg/ml fatty acid-free bovine serum albumin (FAF-BSA) (ICPbio ltd, Auckland, NZ). Intact COC with compact cumulus vestment greater than five cell layers and evenly pigmented cytoplasm were selected under a dissecting microscope and washed twice in Hepes-buffered TCM-199 and once in corresponding culturing media.
The cytoplasm of each oocyte was microsurgically removed from the COC (oocytectomy) using a micromanipulator as described in Buccione et al (Buccione et al. (1990) Dev Biol 138, 16-25.). The resulting oocytectomized complex (OOX) consists of a hollow zona pellucida surrounded by several layers of intact CC.
Denuded oocytes (DO) were generated by removing CC from COC by vortexing for approximately 4 minutes in 2 ml H-TCM-199/BSA. Any remaining CC were removed by repeated passage of the oocytes through a fine-bore fire-polished glass pipette in H-TCM-199/BSA.
CC apoptoic DNA was detected using TUNEl (Roche Diagnostic, Penzberg, Germany) according to the manufacturer's instructions. Briefly, following culture COC and OOX complexes were washed twice in PBS (pH 7.4) containing 1% BSA, fixed in 4% paraformaldehyde in PBS (pH 7.4) overnight at 4° C. and washed twice with PBS/BSA before placing on Cell-Tak-coated coverslips (Beckton Dickinson Biosciences, Franklin lakes, N.J.). Complexes were then permeabilized in 0.11/u Triton X-100 in 0.1% sodium citrate for 1 hour at room temperature and washed 3 times in PBS/BSA. The complexes were then incubated in fluorescein-conjugated dUTP and terminal deoxynucleotide transferase (TUNEl reagents, Roche) for 1 hour at 37° C. in the dark. Positive controls were incubated in DNAse 1 (0.005 U/µl), which cleaves all DNA, for 20 minutes at room temperature and washed twice in PBS/BSA before TUNEl. Negative controls were incubated in fluorescein-dUTP in the absence of TdT. After TUNEl, complexes were washed twice in PBS/BSA and counterstained with propidium iodide 0.5 μg/ml (PI) plus RNase A (0.1 mg/ml) for 1 hour at room temperature in the dark to label all nuclei. Complexes were then washed twice in PBS/BSA and mounted with slight coverslip compression in VectaShield anti-bleaching solution (Vector labs, Burlingame, Calif.), and stored in the dark at 4° C. for confocal analysis.
Apoptosis in COC and OOX was visualised and quantified using confocal microscopy. Dual fluorescence emission from CC was detected using a Nikon C1 Confocal Scanning Head and a Nikon TE2000E microscope (Nikon, Tokyo, Japan). Simultaneous emission capture of the apoptotic signal (fluorescein, lacer excitation 488 nm, emission 510-530 nm) and the nuclear signal (propidium iodide, excitation lacer 532, emission 590-640 nm) was performed.
In order to generate an accurate representation of the overall apoptotic incidence for all complexes, the depth of each complex was measured through a Z series to divide the construct into three percentiles (optical Z plane sections) at 25%, 50% and 75%. These optical section images were acquired and saved as independent colour channels (green, apoptotic cumulus fluorescence and red, nuclear cumulus fluorescence). The captured images were then processed in Scanalytics IPlab software Version 3.6. (Scanalytics, Fairfax, Va.). Quantification of CC number (for each colour channel) was independently measured using a macro script utilizing an auto segmentation filter for each optical section percentile (3 optical “z”-plane sections for each complex).

Molecule | GDF-9 and oocyte-induced cumulus expansion with inhibitor [1] | GDF-9 and oocyte-induced granulosa cell DNA synthesis with inhibitor [2] | TGF-β1, GDF9 and oocyte-stimulated activation of Smad2/3 molecules (CAGA-luciferase activity) with inhibitor [3] | CAGA-luciferase activity above control levels [4] | BRE-luciferase activity compared to control levels [5] | effect on cumulus cell apoptosis [6]
NC(=O)c1ccc(-c2nc(-c3ccccn3)c(-c3ccc4c(c3)OCO4)[nH]2)cc1 [ALK4/5/7 kinase inhibitor] | completely neutralised | completely abrogated | completely abrogated | – | – | –
TGF-β1: Transforming growth factor beta 1 [reference compound] | – | – | – | 19 fold | not activated | –
B1 | – | – | – | not stimulated | 31 fold | significantly reduced
